BindingDB's records for doi:10.1021/jm070851i (Wyeth Research, 2007)

Biological target: T1, 3-phosphoinositide-dependent protein kinase 1 (Homo sapiens, UniProt O15530)
T1 sequence (O15530 whole entry): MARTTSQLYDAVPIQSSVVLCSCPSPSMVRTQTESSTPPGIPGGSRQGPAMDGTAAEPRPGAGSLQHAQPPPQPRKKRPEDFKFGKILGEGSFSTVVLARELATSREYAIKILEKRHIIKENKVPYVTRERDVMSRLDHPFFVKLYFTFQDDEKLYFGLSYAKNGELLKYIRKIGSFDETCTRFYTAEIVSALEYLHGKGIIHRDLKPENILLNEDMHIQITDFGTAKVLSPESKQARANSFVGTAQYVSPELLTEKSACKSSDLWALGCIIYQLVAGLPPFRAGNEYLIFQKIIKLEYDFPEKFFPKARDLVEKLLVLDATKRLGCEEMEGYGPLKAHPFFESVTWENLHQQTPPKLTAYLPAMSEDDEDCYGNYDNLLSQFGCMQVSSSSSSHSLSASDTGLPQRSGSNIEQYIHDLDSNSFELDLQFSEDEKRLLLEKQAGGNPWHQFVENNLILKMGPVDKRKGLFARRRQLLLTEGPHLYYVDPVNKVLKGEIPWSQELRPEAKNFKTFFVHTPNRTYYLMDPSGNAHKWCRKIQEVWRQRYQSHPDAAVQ
Experiment: ELISA assay
Conditions: pH 7.4; 23 °C
Protocol: A homogeneous in vitro assay based on a LANCE format was first used for high-throughput screening. […] ELISA IC50s were determined by Microsoft Excel data analysis wizard model 63 with the luminescent signal from wells without compound treatment as 100%.

IC50: 300 nM
SMILES: COc1cc2c(cc1NCCN1CCOCC1)ncc1c(N)nc3c(C)c(N)ccc3c12 [16-methoxy-6-methyl-15-N-[2-(morpholin-4-yl)ethyl]-8,12-diazatetracyclo[8.8.0.0^{2,7}.0^{13,18}]octadeca-1(10),2(7),3,5,8,11,13,15,17-nonaene-5,9,15-triamine]
